Assay results as given in ChEMBL document CHEMBL4813909, “Heterocyclic Diamidine DNA Ligands as HOXA9 Transcription Factor Inhibitors: Design, Molecular Evaluation, and Cellular Consequences in a HOXA9-Dependant Leukemia Cell Model” (J Med Chem, 2019).
The source made the active and inactive calls. The calls are words filed in the database; no cut-off is given here.

What was measured:
[1] = Drug localization in nucleus of human HT-29 cells at 5 uM incubated for 16 hrs by DiOC6/propidium iodide staining based by fluorescence microscopy; type: ADME, subcellular; conditions: ht-29, 16 h
[2] = Induction of cell death in mouse MigA9 cells harboring mouse Hoxa9 gene assessed as propidium iodide-positive cells at 15 uM incubated for 24 hrs by propidium iodide staining based flow cytometry (reference value: 9.06 +/- 0.53%); type: functional; conditions: dose 15 µM; time 24 hrs
[3] = Induction of cell death in mouse MigA9 cells harboring mouse Hoxa9 gene assessed as propidium iodide-positive cells at 20 uM incubated for 24 hrs by propidium iodide staining based flow cytometry (reference value: 9.06 +/- 0.53%); type: functional; conditions: dose 20 µM; time 24 hrs
[4] = Induction of cell cycle arrest in mouse MigA9 cells harboring mouse Hoxa9 gene assessed as accumulation at sub-G1 phase at 20 uM incubated for 48 hrs by propidium iodide staining based flow cytometry (reference value: 0.76 +/- 0.1%); type: functional
[5] = molecular target: Homeobox protein Hox-A9 (Mus musculus) (UniProt P09631); assay: Inhibition of HOXA9 in mouse MigA9 cells assessed as induction of nuytten-ezh2-targets-up genes by gene set enrichment analysis; type: cell-based
[6] = molecular target: Homeobox protein Hox-A9 (Mus musculus) (UniProt P09631); assay: Inhibition of HOXA9 in mouse MigA9 cells assessed as induction of takeda- targets-of-nup98- hoxa9-fusion-8d-dn genes by gene set enrichment analysis; type: cell-based
[7] = molecular target: Homeobox protein Hox-A9 (Mus musculus) (UniProt P09631); assay: Inhibition of HOXA9 in mouse MigA9 cells assessed as induction of gal-leukemic stem cell-dn genes by gene set enrichment analysis; type: cell-based
[8] = molecular target: Homeobox protein Hox-A9 (Mus musculus) (UniProt P09631); assay: Inhibition of HOXA9 in mouse MigA9 cells assessed as induction of gabriely-mir21-targets gene by gene set enrichment analysis; type: cell-based
[9] = molecular target: Homeobox protein Hox-A9 (Mus musculus) (UniProt P09631); assay: Inhibition of HOXA9 in mouse MigA9 cells assessed as downregulation of martens-tretinoin-response-dn genes by gene set enrichment analysis; type: cell-based
[10] = molecular target: Homeobox protein Hox-A9 (Mus musculus) (UniProt P09631); assay: Inhibition of HOXA9 in mouse MigA9 cells assessed as downregulation of wang-immortalised-by-hoxa9-and meis1-up genes by gene set enrichment analysis; type: cell-based
MigA9 [11] = assay: Induction of ITGAM gene in mouse MigA9 cells by ingenuity pathway analysis; type: functional, cell-based
MigA9 [12] = assay: Induction of RGS10 gene in mouse MigA9 cells by ingenuity pathway analysis; type: functional, cell-based
MigA9 [13] = assay: Induction of TP53 gene in mouse MigA9 cells by ingenuity pathway analysis; type: functional, cell-based
MigA9 [14] = assay: Induction of CD47 gene in mouse MigA9 cells by ingenuity pathway analysis; type: functional, cell-based
MigA9 [15] = assay: Induction of IGLL1/IGLL5 gene in mouse MigA9 cells by ingenuity pathway analysis; type: functional, cell-based
MigA9 [16] = assay: Induction of PIM1 gene in mouse MigA9 cells by ingenuity pathway analysis; type: functional, cell-based
MigA9 [17] = assay: Induction of TAC4 gene in mouse MigA9 cells by ingenuity pathway analysis; type: functional, cell-based
MigA9 [18] = assay: Induction of AKAP13 gene in mouse MigA9 cells by ingenuity pathway analysis; type: functional, cell-based
MigA9 [19] = assay: Downregulation of ARHGEF1 gene in mouse MigA9 cells by ingenuity pathway analysis; type: functional, cell-based
MigA9 [20] = assay: Downregulation of CD74 gene in mouse MigA9 cells by ingenuity pathway analysis; type: functional, cell-based
MigA9 [21] = assay: Upregulation of DICER1 gene in mouse MigA9 cells by ingenuity pathway analysis; type: functional, cell-based
MigA9 [22] = assay: Upregulation of DNMT3A gene in mouse MigA9 cells by ingenuity pathway analysis; type: functional, cell-based
MigA9 [23] = assay: Upregulation of E2F1 gene in mouse MigA9 cells by ingenuity pathway analysis; type: functional, cell-based
MigA9 [24] = assay: Downregulation of FGF7 gene in mouse MigA9 cells by ingenuity pathway analysis; type: functional, cell-based
MigA9 [25] = assay: Upregulation of ID1 gene in mouse MigA9 cells by ingenuity pathway analysis; type: functional, cell-based
MigA9 [26] = assay: Downregulation of KLF2 gene in mouse MigA9 cells by ingenuity pathway analysis; type: functional, cell-based
MigA9 [27] = assay: Upregulation of KLF3 gene in mouse MigA9 cells by ingenuity pathway analysis; type: functional, cell-based
MigA9 [28] = assay: Upregulation of Ncoa6 gene in mouse MigA9 cells by ingenuity pathway analysis; type: functional, cell-based
MigA9 [29] = assay: Downregulation of onecut1 gene in mouse MigA9 cells by ingenuity pathway analysis; type: functional, cell-based
MigA9 [30] = assay: Downregulation of pim1 gene in mouse MigA9 cells by ingenuity pathway analysis; type: functional, cell-based
MigA9 [31] = assay: Upregulation of rgs10 gene in mouse MigA9 cells by ingenuity pathway analysis; type: functional, cell-based
MigA9 [32] = assay: Upregulation of tac4 gene in mouse MigA9 cells by ingenuity pathway analysis; type: functional, cell-based
MigA9 [33] = assay: Upregulation of timp2 gene in mouse MigA9 cells by ingenuity pathway analysis; type: functional, cell-based
MigA9 [34] = assay: Downregulation of CTSG gene in mouse MigA9 cells by ingenuity pathway analysis; type: functional, cell-based
MigA9 [35] = assay: Upregulation of CEACAM1 gene in mouse MigA9 cells by ingenuity pathway analysis; type: functional, cell-based
K562 = assay: Anticlonogenic activity in human K562 cells assessed as K562 number at 2.5 uM incubated for 10 days by Methocult-colony forming cell assay relative to control; type: functional; conditions: time 10 day
[36] = Stability in mouse MigA9 cells assessed as visibility of intrinsic fluorescence measured after 10 days by fluorescence microscopy; type: ADME, cell-based; conditions: miga9, 240 h, time 10 day
HOXA9 DNA binding site [37] = conditions: dose 0.5 µM
HOXA9 DNA binding site [38] = conditions: dose 1.0 µM
[39] = system: HOXA9 DNA binding site [UNDEFINED MUTATION]
[40] = system: HOXA9 DNA binding site [UNDEFINED MUTATION]; remark: listed apart in the source
[41] = Induction of cell death in mouse MigA9 cells harboring mouse Hoxa9 gene assessed as propidium iodide-positive cells at 0.5 uM incubated for 24 hrs by propidium iodide staining based flow cytometry (reference value: 9.06 +/- 0.53%); type: functional
[42] = Induction of cell death in mouse MigA9 cells harboring mouse Hoxa9 gene assessed as propidium iodide-positive cells at 1 uM incubated for 24 hrs by propidium iodide staining based flow cytometry relative to control; type: functional
[43] = Induction of cell death in mouse MigA9 cells harboring mouse Hoxa9 gene assessed as propidium iodide-positive cells at 0.5 uM incubated for 48 hrs by propidium iodide staining based flow cytometry (reference value: 8.75 +/- 0.2%); type: functional
[44] = Induction of cell death in mouse MigA9 cells harboring mouse Hoxa9 gene assessed as propidium iodide-positive cells at 1 uM incubated for 48 hrs by propidium iodide staining based flow cytometry (reference value: 8.75 +/- 0.2%); type: functional
[45] = Induction of cell cycle arrest in mouse MigA9 cells harboring mouse Hoxa9 gene assessed as accumulation at sub-G1 phase at 0.5 uM incubated for 48 hrs by propidium iodide staining based flow cytometry (reference value: 0.76 +/- 0.1%); type: functional
[46] = Induction of cell cycle arrest in mouse MigA9 cells harboring mouse Hoxa9 gene assessed as accumulation at sub-G1 phase at 1 uM incubated for 48 hrs by propidium iodide staining based flow cytometry (reference value: 0.76 +/- 0.1%); type: functional
[47] = Drug localization in nucleus of mouse MigA9 cells at 20 uM incubated for 2 hrs by TO-PRO-3/propidium iodide staining based by fluorescence microscopy; type: ADME, subcellular; conditions: miga9, 2 h
[48] = Induction of cell cycle arrest in mouse MigA9 cells expressing mouse Hoxa9 assessed as accumulation at G0/G1 phase at 0.5 uM incubated for 48 hrs by EdU/propidium iodide staining based flow cytometry (reference value: 48.77 +/- 0.19%); type: functional
[49] = Induction of cell cycle arrest in mouse MigA9 cells expressing mouse Hoxa9 assessed as accumulation at G0/G1 phase at 1 uM incubated for 48 hrs by EdU/propidium iodide staining based flow cytometry (reference value: 48.77 +/- 0.19%); type: functional
[50] = Induction of cell cycle arrest in mouse MigA9 cells expressing mouse Hoxa9 assessed as accumulation at S phase at 0.5 uM incubated for 48 hrs by EdU/propidium iodide staining based flow cytometry (reference value: 46.68 +/- 0.21%); type: functional
[51] = Induction of cell cycle arrest in mouse MigA9 cells expressing mouse Hoxa9 assessed as accumulation at S phase at 1 uM incubated for 48 hrs by EdU/propidium iodide staining based flow cytometry (reference value: 46.68 +/- 0.21%); type: functional
[52] = Induction of cell cycle arrest in mouse MigA9 cells expressing mouse Hoxa9 assessed as accumulation at G2/M phase at 0.5 uM incubated for 48 hrs by EdU/propidium iodide staining based flow cytometry (reference value: 4.55 +/- 0.16%); type: functional
[53] = Induction of cell cycle arrest in mouse MigA9 cells expressing mouse Hoxa9 assessed as accumulation at G2/M phase at 1 uM incubated for 48 hrs by EdU/propidium iodide staining based flow cytometry (reference value: 4.55 +/- 0.16%); type: functional
[54] = Cytotoxicity against mouse MigA9 cells harboring mouse Hoxa9 gene incubated for 72 hrs by MTS assay; type: functional, cell-based; conditions: MigA9, 72 h
HOXA9 DNA binding site [55] = assay: Binding affinity to hairpin DNA Hoxa9-binding site 5'-biotin-CCATGATTTACCTCTGTAAATCATGG (unknown origin) by surface plasmon resonance; type: nucleic-acid assay
HOXA9 DNA binding site [56] = assay: Inhibition of HOXA9 (unknown origin) expressed in reticulocyte lysate system binding to 32P-radiolabeled DNA Hoxa9-binding site (strand a-CTGCGATGATTTACGACCGC /strand b-GCGGTCGTAAATCATCGCAG) (unknown origin) assessed as HOXA9/DNA inhibition at 2.5 to 20 uM incubated for 20 mins by electrophoretic mobility shift assay relative to control; type: subcellular; conditions: dose 2.5-20 µM
[57] = system: HOXA9 DNA binding site [UNDEFINED MUTATION]; assay: Binding affinity to DNA Hoxa9-binding site-5'-ATTTA mutant (strand a-CTGCGATGAGTCACGACCGC/strand b-GCGGTCGTGACTCATCGCAG) (unknown origin) by UV/visible spectrophotometric method; type: nucleic-acid assay
[58] = system: HOXA9 DNA binding site [UNDEFINED MUTATION]; assay: Binding affinity to DNA Hoxa9-binding site-5'-ATTTA/5'ATGA double mutant (strand a-CTGCGTAGCGTCACGACCGC/strand b-GCGGTCGTGACGCTACGCAG) (unknown origin) by UV/visible spectrophotometric method; type: nucleic-acid assay
[59] = Induction of spectral signal at wavelength at 1 to 10 uM by circular dichroism method; type: physicochemical; conditions: dose 1-10 µM

Homeobox protein Hox-A9 (Mus musculus), sequence (P09631 whole entry, the tested form may be a part): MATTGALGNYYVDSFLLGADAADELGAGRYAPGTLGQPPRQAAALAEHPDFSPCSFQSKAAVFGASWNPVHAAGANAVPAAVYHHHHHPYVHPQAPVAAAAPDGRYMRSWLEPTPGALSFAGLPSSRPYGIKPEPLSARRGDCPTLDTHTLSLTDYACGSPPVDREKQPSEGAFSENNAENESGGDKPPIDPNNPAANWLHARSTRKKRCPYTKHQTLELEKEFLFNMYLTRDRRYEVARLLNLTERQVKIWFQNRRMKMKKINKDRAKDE

N=C(N)c1ccc(-c2ccc(-c3nc4ccc(C(=N)N)cc4[nH]3)s2)cc1
Drug transport [1]: Active | Activity [2]: 13.5% | Activity [3]: 21.07% | Activity [4]: 12% | inhibition [5]: Active | inhibition [6]: Active | inhibition [7]: Active | inhibition [8]: Active | inhibition [9]: Active | inhibition [10]: Active | Activity (MigA9 [11]): Active | Activity (MigA9 [12]): Active | Activity (MigA9 [13]): Active | Activity (MigA9 [14]): Active | Activity (MigA9 [15]): Active | Activity (MigA9 [16]): Active | Activity (MigA9 [17]): Active | Activity (MigA9 [18]): Active | Activity (MigA9 [19]): Active | Activity (MigA9 [20]): Active | Activity (MigA9 [21]): Active | Activity (MigA9 [22]): Active | Activity (MigA9 [23]): Active | Activity (MigA9 [24]): Active | Activity (MigA9 [25]): Active | Activity (MigA9 [26]): Active | Activity (MigA9 [27]): Active | Activity (MigA9 [28]): Active | Activity (MigA9 [29]): Active | Activity (MigA9 [30]): Active | Activity (MigA9 [31]): Active | Activity (MigA9 [32]): Active | Activity (MigA9 [33]): Active | Activity (MigA9 [34]): Active | Activity (MigA9 [35]): Active | Activity (K562): 100% | Stabilty [36]: Stable | ΔTm (HOXA9 DNA binding site [37]): 7 °C | ΔTm (HOXA9 DNA binding site [38]): > 10 °C | ΔTm [39]: 4 °C | ΔTm [40]: 4 °C

N=C(Nc1ccc(-c2ccc(-c3ccc(NC(=N)c4ccccn4)cc3)[nH]2)cc1)c1ccccn1
Activity [41]: 5.19% | Activity [42]: 14.43% | Activity [43]: 8.01% | Activity [44]: 17.6% | Activity [45]: 1.23% | Activity [46]: 1.04% | Drug transport [47]: Active | Activity [48]: 48.44% | Activity [49]: 50.15% | Activity [50]: 46.06% | Activity [51]: 43.51% | Activity [52]: 5.5% | Activity [53]: 6.34%

N=C(N)c1cccc(-c2ccc(-c3nc4cc(C(=N)N)ccc4[nH]3)cc2)c1
IC50 [54]: 14.1 µM | Kd (HOXA9 DNA binding site [55]): 5.5 nM | Activity [2]: 3.87% | Activity [3]: 5.17% | Activity [4]: 1.65% | Activity (K562): 100% | ΔTm (HOXA9 DNA binding site [37]): 7 °C | ΔTm (HOXA9 DNA binding site [38]): > 10 °C | ΔTm [39]: 4 °C | ΔTm [40]: 4 °C

N=C(N)c1ccc(-c2ccc(-c3nc4cc(C(=N)N)ccc4o3)o2)cc1
IC50 [54]: > 50 µM | Drug transport [1]: Active | inhibition (HOXA9 DNA binding site [56]): inactive | Activity [57]: inactive | Activity [58]: inactive | Activity [2]: 8.89% | Activity [3]: 8.38% | Activity [4]: 0.92% | Activity (K562): 100% | Stabilty [36]: Stable | Activity [59]: Not Active
